#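 Tested at 5 concentrations; 48 h exposure; 96-well plates; endpoints linearly interpolated, else capped at highest concentration. The concentration for 50% growth inhibition is given as GI50.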 Active and inactive are the calls of the source. Rule as the data show it: active = GI50 up to about 1.1 µM and inactive = higher.
# Experiments:
# Experiment in all cases: growth of human tumour cells (NCI), 48 h
# UACC-62 = test system: UACC-62
# CAKI-1 = test system: CAKI-1
# DU-145 = test system: DU-145
# HT-29 = test system: HT-29
# OVCAR-8 = test system: OVCAR-8
# UO-31 = test system: UO-31
# NCI-H23 = test system: NCI-H23
# MOLT-4 = test system: MOLT-4
# SW-620 = test system: SW-620
# SNB-75 = test system: SNB-75
# NCI/ADR-RES = test system: NCI/ADR-RES
# SK-MEL-5 = test system: SK-MEL-5
# OVCAR-4 = test system: OVCAR-4
# 786-0 = test system: 786-0
# SNB-19 = test system: SNB-19
# MDA-N = test system: MDA-N
# EKVX = test system: EKVX
# T47D = test system: T47D
# HOP-62 = test system: HOP-62
# NCI-H226 = test system: NCI-H226
# U-251 = test system: U-251
# SF-268 = test system: SF-268
# TK-10 = test system: TK-10
# LOX IMVI = test system: LOX IMVI
# BT-549 = test system: BT-549
# PC-3 = test system: PC-3
# NCI-H522 = test system: NCI-H522
# A549 = test system: A549
# HL-60 = test system: HL-60
# NCI-H460 = test system: NCI-H460
# SF-295 = test system: SF-295
# SK-MEL-28 = test system: SK-MEL-28
# HOP-92 = test system: HOP-92
# MDA-MB-231 = test system: MDA-MB-231
# SF-539 = test system: SF-539
# SK-MEL-2 = test system: SK-MEL-2
# IGROV-1 = test system: IGROV-1
# RPMI-8226 = test system: RPMI-8226
# UACC-257 = test system: UACC-257
# M14 = test system: M14
# HCT-15 = test system: HCT-15
# COLO 205 = test system: COLO 205
# A498 = test system: A498
# Hs-578T = test system: Hs-578T
# KM12 = test system: KM12
# SN12C = test system: SN12C
# CCRF-CEM = test system: CCRF-CEM
# HCC 2998 = test system: HCC 2998
# HCT-116 = test system: HCT-116
# SK-OV-3 = test system: SK-OV-3
# MDA-MB-435 = test system: MDA-MB-435
# OVCAR-5 = test system: OVCAR-5
# ACHN = test system: ACHN
# K562 = test system: K562
# RXF 393 = test system: RXF 393
# OVCAR-3 = test system: OVCAR-3
# SR = test system: SR
# MCF7 = test system: MCF7
# Malme-3M = test system: Malme-3M
smiles,measurement,setting,value
[N-]=[N+]=C1C(=O)c2ccccc2-c2ccccc21,GI50,UACC-62,22.3 µM (inactive)
same,GI50,CAKI-1,37.4 µM (inactive)
same,GI50,DU-145,30.9 µM (inactive)
same,GI50,HT-29,34.8 µM (inactive)
same,GI50,OVCAR-8,30.6 µM (inactive)
same,GI50,UO-31,27.2 µM (inactive)
same,GI50,NCI-H23,35 µM (inactive)
same,GI50,MOLT-4,24.9 µM (inactive)
same,GI50,SW-620,37.4 µM (inactive)
same,GI50,SNB-75,20 µM (inactive)
same,GI50,NCI/ADR-RES,25.6 µM (inactive)
same,GI50,SK-MEL-5,15.7 µM (inactive)
same,GI50,OVCAR-4,35.8 µM (inactive)
same,GI50,786-0,26.1 µM (inactive)
same,GI50,SNB-19,45.8 µM (inactive)
same,GI50,MDA-N,43.7 µM (inactive)
same,GI50,EKVX,30.5 µM (inactive)
same,GI50,T47D,28.3 µM (inactive)
same,GI50,HOP-62,41.2 µM (inactive)
same,GI50,NCI-H226,30 µM (inactive)
same,GI50,U-251,31.3 µM (inactive)
same,GI50,SF-268,33.3 µM (inactive)
same,GI50,TK-10,54 µM (inactive)
same,GI50,LOX IMVI,25.9 µM (inactive)
same,GI50,BT-549,34.4 µM (inactive)
same,GI50,PC-3,25.8 µM (inactive)
same,GI50,NCI-H522,24.4 µM (inactive)
same,GI50,A549,30.4 µM (inactive)
same,GI50,HL-60,28.8 µM (inactive)
same,GI50,NCI-H460,32.1 µM (inactive)
same,GI50,SF-295,33 µM (inactive)
same,GI50,SK-MEL-28,60.8 µM (inactive)
same,GI50,HOP-92,33.3 µM (inactive)
same,GI50,MDA-MB-231,36 µM (inactive)
same,GI50,SF-539,24.6 µM (inactive)
same,GI50,SK-MEL-2,29.4 µM (inactive)
same,GI50,IGROV-1,33 µM (inactive)
same,GI50,RPMI-8226,26.9 µM (inactive)
same,GI50,UACC-257,36.7 µM (inactive)
same,GI50,M14,44.6 µM (inactive)
same,GI50,HCT-15,29 µM
same,GI50,COLO 205,32.1 µM (inactive)
same,GI50,A498,16.3 µM (inactive)
same,GI50,Hs-578T,33 µM (inactive)
same,GI50,KM12,39.2 µM (inactive)
same,GI50,SN12C,35.2 µM (inactive)
same,GI50,CCRF-CEM,20.2 µM (inactive)
same,GI50,HCC 2998,51.3 µM (inactive)
same,GI50,HCT-116,28.1 µM (inactive)
same,GI50,SK-OV-3,39.5 µM (inactive)
same,GI50,MDA-MB-435,40.7 µM (inactive)
same,GI50,OVCAR-5,34.1 µM (inactive)
same,GI50,ACHN,38.6 µM (inactive)
same,GI50,K562,36.6 µM (inactive)
same,GI50,RXF 393,15.6 µM (inactive)
same,GI50,OVCAR-3,40.9 µM (inactive)
same,GI50,SR,24.5 µM (inactive)
same,GI50,MCF7,25.9 µM (inactive)
CCOC(=O)/C=C1\C[C@H](NC(=O)OCc2ccccc2)C(=O)N1CC(=O)OCC,GI50,Malme-3M,> 100 µM (inactive)
same,GI50,UACC-62,> 100 µM (inactive)
same,GI50,CAKI-1,> 100 µM (inactive)
same,GI50,DU-145,> 100 µM (inactive)
same,GI50,HT-29,> 100 µM (inactive)
same,GI50,OVCAR-8,> 100 µM (inactive)
same,GI50,UO-31,> 100 µM (inactive)
same,GI50,NCI-H23,> 100 µM (inactive)
same,GI50,MOLT-4,> 100 µM (inactive)
same,GI50,SW-620,> 100 µM (inactive)
same,GI50,SNB-75,> 100 µM (inactive)
same,GI50,NCI/ADR-RES,> 100 µM (inactive)
same,GI50,SK-MEL-5,> 100 µM (inactive)
same,GI50,OVCAR-4,> 100 µM (inactive)
same,GI50,786-0,> 100 µM (inactive)
same,GI50,SNB-19,> 100 µM (inactive)
same,GI50,MDA-N,> 100 µM (inactive)
same,GI50,EKVX,> 100 µM (inactive)
same,GI50,T47D,> 100 µM (inactive)
same,GI50,HOP-62,> 100 µM (inactive)
same,GI50,NCI-H226,> 100 µM (inactive)
same,GI50,U-251,> 100 µM (inactive)
same,GI50,SF-268,> 100 µM (inactive)
same,GI50,TK-10,> 100 µM (inactive)
same,GI50,BT-549,> 100 µM (inactive)
same,GI50,PC-3,> 100 µM (inactive)
same,GI50,NCI-H522,> 100 µM (inactive)
same,GI50,A549,> 100 µM (inactive)
same,GI50,HL-60,> 100 µM (inactive)
same,GI50,NCI-H460,> 100 µM (inactive)
same,GI50,SF-295,> 100 µM (inactive)
same,GI50,SK-MEL-28,> 100 µM (inactive)
same,GI50,HOP-92,> 100 µM (inactive)
same,GI50,MDA-MB-231,> 100 µM (inactive)
same,GI50,SF-539,> 100 µM (inactive)
same,GI50,SK-MEL-2,> 100 µM (inactive)
same,GI50,IGROV-1,> 100 µM (inactive)
same,GI50,RPMI-8226,> 100 µM (inactive)
same,GI50,UACC-257,> 100 µM (inactive)
same,GI50,M14,> 100 µM (inactive)
same,GI50,HCT-15,> 100 µM
same,GI50,COLO 205,> 100 µM (inactive)
same,GI50,A498,> 100 µM (inactive)
same,GI50,Hs-578T,> 100 µM (inactive)
same,GI50,KM12,> 100 µM (inactive)
same,GI50,SN12C,> 100 µM (inactive)
same,GI50,CCRF-CEM,> 100 µM (inactive)
same,GI50,HCC 2998,> 100 µM (inactive)
same,GI50,HCT-116,> 100 µM (inactive)
same,GI50,SK-OV-3,> 100 µM (inactive)
same,GI50,MDA-MB-435,> 100 µM (inactive)
same,GI50,OVCAR-5,> 100 µM (inactive)
same,GI50,ACHN,> 100 µM (inactive)
same,GI50,K562,> 100 µM (inactive)
same,GI50,RXF 393,61.2 µM (inactive)
same,GI50,OVCAR-3,> 100 µM (inactive)
same,GI50,SR,> 100 µM (inactive)
same,GI50,MCF7,> 100 µM (inactive)

# From ChEMBL document CHEMBL1201862, “PubChem BioAssay data set” (2004)
